Values quoted from earlier work in patent US20260182571A1, “A ME[…] AND USE THEREOF” (I-TECH AB, priority 2022, published 2026).

Details: pH 7 and 20° C.

SMILES: On1ccccc1=S.On1ccccc1=S.[Cu] [CuPT, copper (II) pyrithione]
- (equilibrium) water solubility: less than 0.039 mg/L
